Measured values: US12239711B2, “Cereblon ligands and bifunctional compounds comprising the same” (Arvinas Operations, Inc., priority 2014, dated 2025)

Assays:
[1] = tested on: estrogen responsive element/promoter/luciferase reporter gene; test: ERE Luciferase Assay in T47D-KBluc cells; type: cell-based, human; settings: Homo sapiens, 24 hours, luciferase activity, read-out: Target Engagement IC50
Experimental: 1. ERE Luciferase Assay for Compounds in Table 5.
T47D-KBluc cells (ATCC® #CRL_2865, T47D human breast cancer cells stably transfected with estrogen responsive element/promoter/luciferase reporter gene) were seeded into 96-well white opaque plates in RPMI growth medium supplemented with 10% fetal bovine serum (FBS) and allowed to adhere overnight in a 37° C. humidified incubator. The following day, cells were treated with PROTACs in a 12-point concentration curve (top final concentration of 300 nM with subsequent concentrations being 3-fold less with 2 pM being the lowest concentration in the assay). Each PROTAC was tested independently in two experiments on 96-well plates. After 24 hours, media was removed and lysis buffer was added to the wells. Following lysis, Bright-Glo™ Luciferase Assay Substrate (Promega, Madison WI) was added and the luciferase activity was measured using a Cytation 3 plate reader (BioTek™, Winooski, VT). Each compound was assayed in duplicate and the activity was calculated as IC50 using GraphPad Prism software (San Diego, CA).

[2] = biological target: T1, Estrogen Receptor-Alpha (ERα) (Homo sapiens, UniProt P03372); test: Estrogen Receptor-Alpha (ERα) degradation assay in MCF-7 cells (western blot / In-Cell Western); type: cell-based; settings: for Dmax: MCF7, read-out: ER Dmax; for DC50: read-out: ER DC50
T1 construct: endogenous in cells; host or cells: MCF-7 (MCF7) cells
T1 sequence (P03372 1-595): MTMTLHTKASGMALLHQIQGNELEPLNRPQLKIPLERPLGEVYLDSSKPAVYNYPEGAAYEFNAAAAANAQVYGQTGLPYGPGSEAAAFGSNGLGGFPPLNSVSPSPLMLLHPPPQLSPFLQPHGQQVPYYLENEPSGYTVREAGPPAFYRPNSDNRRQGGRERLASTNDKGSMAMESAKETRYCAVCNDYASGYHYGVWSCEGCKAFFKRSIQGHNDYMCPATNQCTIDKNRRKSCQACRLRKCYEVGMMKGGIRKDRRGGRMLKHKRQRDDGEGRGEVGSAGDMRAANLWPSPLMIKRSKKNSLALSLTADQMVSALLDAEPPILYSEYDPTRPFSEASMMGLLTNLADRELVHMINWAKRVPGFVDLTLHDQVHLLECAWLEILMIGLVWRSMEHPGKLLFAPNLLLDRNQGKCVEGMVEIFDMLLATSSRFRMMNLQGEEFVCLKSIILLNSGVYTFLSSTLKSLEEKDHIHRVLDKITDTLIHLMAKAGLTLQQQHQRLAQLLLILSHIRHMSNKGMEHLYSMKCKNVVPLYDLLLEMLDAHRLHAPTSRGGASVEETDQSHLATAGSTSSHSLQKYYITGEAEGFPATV
Experimental: 2. Estrogen Receptor-Alpha (ERα) Degradation Assay in MCF-7 Cells Using Western Blot Method for Table 5.
The exemplary novel ERα degraders were assessed for their activity in degrading ERα in MCF-7 cells via western blot. The assay was carried out in the presence of 10% FBS or high percentage of human or mouse serum. Protocols of the western blot assay are described below.
MCF7 cells were grown in DMEM/F12 with 10% FBS and seeded at 24,000 cells per well in 100 μl into 96-well clear tissue culture plates. The following day, the cells were treated with PROTACs in a […] concentration curve with 100 nM being the top concentration and serial dilutions to make the other concentrations (30 nM, 10 nM, 3 nM, 1 nM, and 0.3 nM). At all concentrations, 0.01% DMSO is the final concentration in the well. The following day, the plates are aspirated, washed with 50 μl of cold PBS. The cells are lysed with 50 μl/well 4° C. Cell Lysis Buffer (Catalog #9803; Cell Signaling Technology, Danvers, MA) (20 mM Tris-HCL (pH 7.5), 150 mM NaCl, 1 mM Na2EDTA, 1 mM EGTA, 1% Triton, 2.5 mM sodium pyrophosphate, 1 mM B-glycerophosphate, 1 mM sodium vanadate, 1 ug/ml leupeptin). Lysates were clarified at 16,000×g for 10 minutes, and 2 μg of protein was subjected to SDS-PAGE analysis and followed by immunoblotting according to standard protocols. The antibodies used were ERα (Cell Signaling Technologies Catalog #8644), and Tubulin (Sigma Catalog #T9026; St. Louis, MO). Detection reagents were Clarity Western ECL substrate (Bio-Rad Catalog #170-5060; Hercules, CA).
Alternatively, MCF7 cells were grown in DMEM/F12 with 10% FBS and seeded at 24,000 cells per well in 500 μl in 24-well clear tissue culture plates. The following day, the cells were treated with PROTACs in a 5-point concentration curve (100 nM, 33 nM, 11 nM, 3.7 nM, and 1.2 nM) in the presence of 0.01% DMSO. After 72 hours, the wells are aspirated and washed with 500 μl of PBS. The cells are lysed with 100 μl/well 4° C. Cell Lysis Buffer (Catalog #9803; Cell Signaling Technology, Danvers, MA) (20 mM Tris-HCL (pH 7.5), 150 mM NaCl, 1 mM Na2EDTA, 1 mM EGTA, 1% Triton, 2.5 mM sodium pyrophosphate, 1 mM B-glycerophosphate, 1 mM sodium vanadate, 1 ug/ml leupeptin). Lysates were clarified at 16,000×g for 10 minutes, and 2 μg of protein was subjected to SDS-PAGE analysis and followed by immunoblotting according to standard protocols. The antibodies used were ERα (Cell Signaling Technologies Catalog #8644), and Tubulin (Sigma Catalog #T9026; St. Louis, MO). Detection reagents were Clarity Western ECL substrate (Bio-Rad Catalog #170-5060; Hercules, CA).
3. Estrogen Receptor-Alpha (ERα) Degradation Assay Using In-Cell Western™ Assay for Table 5.
Degradation of ERα by claimed compounds were determined in MCF7 cells using an In-Cell Western™ assay. Briefly, MCF7 cells were plated in 96-well plates (2000 cells per well in 100 μl media) and incubated at 37° C. under an atmosphere of 5% CO2 in a humidified incubator overnight. One-hundred (100) μl of media containing test compound (at 2× concentration) was added to the appropriate wells to provide 11 serially decreasing concentrations (top final concentration, 1 μM then 3-fold less for the next 10 concentrations); a vehicle control (DMSO) was also added for each compound. For each experiment, all compounds were assayed in duplicate plates. Cells were then incubated for 3 or 5 days in the above-mentioned environment. The assay was terminated by removal of media, a single wash with ice-cold PBS and the addition of 50 μl paraformaldehyde (PFA: 4% in PBS). After 15 minutes in PFA at room temperature, the cells were permeabilized in Tris-phosphate-buffered saline with Tween (0.1%) (TBST) supplemented with Triton X-100 (0.5%) for 15 minutes. Cells were then blocked in BSA (TBST with BSA, 3%) for one hour. […]

| Structure (SMILES) | IC50 [1] [nM] | Dmax [2] [%] | DC50 [2] [nM] |
| --- | --- | --- | --- |
| COc1cc(N2CCN(CCCC(F)(F)COc3ccc([C@@H]4c5ccc(O)cc5CC[C@@H]4c4ccccc4)cc3)CC2)cc2c1C(=O)N(C1CCC(=O)NC1=O)C2 (stereo partly drawn) [compound 12, 3-[5-[4-[4,4-difluoro-5-[4-[(1R,2S)-6-hydroxy-2-phenyl-tetralin-1-yl]phenoxy]pentyl]piperazin-1-yl]-7-methoxy-1-oxo-isoindolin-2-yl]piperidine-2,6-dione] | 1 | ≥ 75 | < 1 |
| COc1c(N2CCN(CCCCCOc3ccc([C@@H]4c5ccc(O)cc5CC[C@@H]4c4ccccc4)cc3)CC2)ccc2c1CN(C1CCC(=O)NC1=O)C2=O (stereo partly drawn) [compound 3, 3-[5-[4-[5-[4-[(1R,2S)-6-hydroxy-2-phenyl-tetralin-1-yl]phenoxy]pentyl]piperazin-1-yl]-4-methoxy-1-oxo-isoindolin-2-yl]piperidine-2,6-dione] | 1.35 | ≥ 75 | < 1 |
| COCCOCCOc1c(CCN2CCCN(CCCCOc3ccc([C@@H]4c5ccc(O)cc5CC[C@@H]4c4ccccc4)cc3)CC2)ccc2c1CN([C@H]1CCC(=O)NC1=O)C2=O [compound 8, (3S)-3-[5-[2-[4-(4-[4-[(1R,2S)-6-hydroxy-2-phenyl-tetralin-1-yl]phenoxy]butyl]-1,4-diazepan-1-yl]ethyl]-4-[2-(2-methoxyethoxy)ethoxy]-1-oxo-isoindolin-2-yl]piperidine-2,6-dione] | 0.34 | 50 to 75 | 1 to 10 |
| COCCOCCOc1c(N2CCN(CC3CCN(c4ccc([C@@H]5c6ccc(O)cc6CC[C@@H]5c5ccccc5)cc4)CC3)CC2)ccc2c1CN(C1CCC(=O)NC1=O)C2=O (stereo partly drawn) [compound 6, 3-(5-{4-[(1-{4-[(1R,2S)-6-hydroxy-2-phenyl-1,2,3,4-tetrahydronaphthalen-l-yl]phenyl}piperidin-4-yl)methyl]piperazin-1-yl}-4-[2-(2-methoxyethoxy)ethoxy]-1-oxo-2,3-dihydro-1H-isoindol-2-yl)piperidine-2,6-dione] | 2.18 | < 50 | – |
| COc1cc(N2CCN(CCC3CCN(c4ccc([C@@H]5c6ccc(O)cc6CC[C@@H]5c5ccccc5)cc4F)CC3)CC2)cc2c1C(=O)N(C1CCC(=O)NC1=O)C2 (stereo partly drawn) [compound 24, 3-[5-[4-[2-[1-[2-fluoro-4-[(1R,2S)-6-hydroxy-2-phenyl-tetralin-1-yl]phenyl]-4-piperidyl]ethyl]piperazin-1-yl]-7-methoxy-1-oxo-isoindolin-2-yl]piperidine-2,6-dione] | 0.7 | ≥ 75 | 1 to 10 |
| COc1cc(N2CCN(Cc3cccc(COc4ccc([C@@H]5c6ccc(O)cc6CC[C@@H]5c5ccccc5)cc4)n3)CC2)cc2c1C(=O)N(C1CCC(=O)NC1=O)C2 (stereo partly drawn) [compound 17, 3-[5-[4-[[6-[[4-[(1R,2S)-6-hydroxy-2-phenyl-tetralin-1-yl]phenoxy]methyl]-2-pyridyl]methyl]piperazin-1-yl]-7-methoxy-1-oxo-isoindolin-2-yl]piperidine-2,6-dione] | 1.5 | 50 to 75 | 1 to 10 |
| COc1cc(N2CCN(CCCCCOc3ccc([C@H]4c5ccc(O)cc5CC[C@H]4c4ccccc4)cc3)CC2)cc2c1C(=O)N(C1CCC(=O)NC1=O)C2 (stereo partly drawn) [compound 1, 3-{5-[4-(5-{4-[(1S,2R)-6-hydroxy-2-phenyl-1,2,3,4-tetrahydronaphthalen-1-yl]phenoxy}pentyl)piperazin-1-yl]-7-methoxy-1-oxo-2,3-dihydro-1H-isoindol-2-yl}piperidine-2,6-dione] | 58.2 | 50 to 75 | 10 to 100 |
| O=C1CCC(N2Cc3cc(N4CCN(CCC5CC(Oc6ccc([C@@H]7c8ccc(O)cc8CC[C@@H]7c7ccccc7)cc6)C5)CC4)cc(OC(F)F)c3C2=O)C(=O)N1 (stereo partly drawn) [compound 23, 3-[7-(difluoromethoxy)-5-[4-[2-[3-[4-[(1R,2S)-6-hydroxy-2-phenyl-tetralin-1-yl]phenoxy]cyclobutyl]ethyl]piperazin-1-yl]-1-oxo-isoindolin-2-yl]piperidine-2,6-dione] | 1.8 | 50 to 75 | 1 to 10 |
| COc1cc(N2CCN(CCCCCOc3ccc([C@@H]4c5ccc(O)cc5CC[C@@H]4c4ccccc4)cc3)CC2)cc2c1C(=O)N(C1CCC(=O)NC1=O)C2 (stereo partly drawn) [compound 2, 3-(5-(4-(5-(4-((1R,2S)-6-hydroxy-2-phenyl-1,2,3,4-tetrahydronaphthalen-1-yl)phenoxy)pentyl)piperazin-1-yl)-7-methoxy-1-oxoisoindolin-2-yl)piperidine-2,6-dione] | 0.79 | ≥ 75 | 1 to 10 |
